Where two headings read alike, the source gives them in different places.
Key:
[1] = target: T1, soybean lipoxygenase (LOX) (Glycine max, UniProt P08170); assay: in vitro inhibition of soybean lipoxygenase, UV absorbance based enzyme assay; assay type: biochemical; conditions: sodium linoleate 0.1 mM, pH 9; for % LOX Inhibition at 100 Μμ / inhibition at 100 µM: 100 μM compound; for inhibition at 100 µM: read-out: % LOX Inhibition at 100 Μμ
T1 construct: purchased Sigma Chemical, Co. (St. Louis, MO, USA)
T1 sequence (P08170 1-839): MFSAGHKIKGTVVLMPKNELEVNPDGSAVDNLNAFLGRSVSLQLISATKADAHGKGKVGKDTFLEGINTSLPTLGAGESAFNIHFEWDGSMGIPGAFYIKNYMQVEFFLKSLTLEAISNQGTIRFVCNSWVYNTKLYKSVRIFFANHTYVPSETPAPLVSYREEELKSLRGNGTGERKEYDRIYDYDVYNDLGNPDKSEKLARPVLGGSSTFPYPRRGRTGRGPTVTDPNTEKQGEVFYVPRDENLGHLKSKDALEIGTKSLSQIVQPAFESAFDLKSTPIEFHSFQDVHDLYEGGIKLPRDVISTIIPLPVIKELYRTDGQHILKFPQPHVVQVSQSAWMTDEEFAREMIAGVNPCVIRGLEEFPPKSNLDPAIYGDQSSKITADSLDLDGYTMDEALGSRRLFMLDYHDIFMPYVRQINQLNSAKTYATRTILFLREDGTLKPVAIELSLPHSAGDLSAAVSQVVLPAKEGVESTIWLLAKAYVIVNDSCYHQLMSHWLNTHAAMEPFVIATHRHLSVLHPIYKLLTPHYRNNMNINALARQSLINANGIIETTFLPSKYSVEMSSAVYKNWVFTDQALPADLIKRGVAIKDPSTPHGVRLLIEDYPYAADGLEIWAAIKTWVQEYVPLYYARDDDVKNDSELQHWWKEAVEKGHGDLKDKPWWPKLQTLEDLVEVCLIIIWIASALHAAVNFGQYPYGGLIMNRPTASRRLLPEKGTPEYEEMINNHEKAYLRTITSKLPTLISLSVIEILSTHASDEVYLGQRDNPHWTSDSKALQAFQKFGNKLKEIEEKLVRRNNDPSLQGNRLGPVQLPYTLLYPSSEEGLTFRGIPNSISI
Method: Most of the LOX inhibitors are antioxidants or free radical scavengers. LOXs contain a non-heme iron per molecule in the enzyme active site as high-spin Fe^2+ in the native state and the high spin Fe^3+ in the activated state.
A DMSO solution of the tested compound was incubated with sodium linoleate (0.1 mM) and 0.2 mL of soybean LOX solution (1/9 × 10^−4 w/v in saline) in buffer pH 9 (tris) and at room temperature.

[2] = target: T1, soybean lipoxygenase (LOX); parameters: method as in doi:10.1007/s00044-017-1800-6; conditions: 100 μM compound; footnote d; cited from earlier work
[3] = target: hCA I (Homo sapiens, UniProt P00915); assay: stopped flow CO2 hydrase assay, hCA I
hCA I, sequence (P00915 whole entry): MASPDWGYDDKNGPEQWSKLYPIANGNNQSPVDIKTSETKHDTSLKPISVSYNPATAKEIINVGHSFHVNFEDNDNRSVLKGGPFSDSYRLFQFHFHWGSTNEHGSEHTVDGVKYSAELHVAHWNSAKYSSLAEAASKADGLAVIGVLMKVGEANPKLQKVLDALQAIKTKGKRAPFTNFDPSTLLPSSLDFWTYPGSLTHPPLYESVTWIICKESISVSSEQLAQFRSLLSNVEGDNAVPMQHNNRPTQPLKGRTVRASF
Method: (§1) An Applied Photophysics (Oxford, UK) stopped-flow instrument has been used for assaying the CA catalysed CO2 hydration activity [36]. […] The uncatalyzed rates were determined in the same manner and subtracted from the total observed rates. Stock solutions of inhibitor (0.1 mM) were prepared in distilled-deionized water and dilutions up to 0.01 nM were done thereafter with distilled-deionized water. […] The inhibition constants were obtained by non-linear least-squares methods using PRISM 3, as reported earlier [42, 43, 44, 45, 46, 47, 48, 49, 50] and represent the mean from at least three different determinations. The four CA isoforms were recombinant proteins obtained as reported earlier in our laboratory [42, 43, 44, 45, 46, 47, 48, 49, 50].

[4] = target: hCA II (Homo sapiens, UniProt P00918); assay: stopped flow CO2 hydrase assay, hCA II
Method: as §1

[5] = target: hCA IV (Homo sapiens, UniProt P22748); assay: stopped flow CO2 hydrase assay, hCA IV
hCA IV, sequence (P22748 19-312): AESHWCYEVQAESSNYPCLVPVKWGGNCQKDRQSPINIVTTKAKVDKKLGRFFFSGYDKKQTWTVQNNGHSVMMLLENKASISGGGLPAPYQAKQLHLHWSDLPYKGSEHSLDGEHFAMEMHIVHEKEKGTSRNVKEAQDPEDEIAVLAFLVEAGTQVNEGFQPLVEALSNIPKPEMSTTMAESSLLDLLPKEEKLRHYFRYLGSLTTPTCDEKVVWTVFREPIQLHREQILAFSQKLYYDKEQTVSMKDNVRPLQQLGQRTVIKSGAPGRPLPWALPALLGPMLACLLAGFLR
Method: as §1

[6] = target: hCA IX (Homo sapiens, UniProt Q16790); assay: stopped flow CO2 hydrase assay, hCA IX
Method: as §1

Row | % LOX Inhibition at 100 Μμ [1] [%] | inhibition at 100 µM [1] [%] | melting point [°C] | Ki [3] [µM] | Ki [4] [µM] | Ki [5] [µM] | Ki [6] [µM] | IC50 [1] [µM] | Compound | % LOX Inhibition at 100 Μμ [2] [%]
1 | 37 |  |  |  |  |  |  |  | 2-((2-Oxo-2H-chromen-6-yl)oxy)-N-(pyridin-4-ylmethyl)acetamide [Compound 11b] | 
2 | 77 |  |  |  |  |  |  |  | 2-((2-Oxo-2H-chromen-7-yl)oxy)-N-(pyridin-4-ylmethyl)acetamide [Compound 11a] | 
3 |  | 40 |  |  |  |  |  |  | O=c1ccc2cc(O)ccc2o1 [Compound 1b, 6-hydroxycoumarin] | 
4 |  |  | 112.9 to 113 | > 10 | > 10 | 5.57 | 0.247 |  | CCOC(=O)COc1ccc2ccc(=O)oc2c1 [Compound 2a, Ethyl 2-((2-oxo-2H-chromen-7-yl)oxy)acetate] | 16
5 |  |  | 120 to 122 | > 10 | > 10 | > 10 | 2.04 |  | CCOC(=O)COc1ccc2oc(=O)ccc2c1 [Compound 2b, Ethyl 2-((2-oxo-2H-chromen-6-yl)oxy)acetate] | 41
6 |  |  |  | > 10 | > 10 | 8.48 | 0.29 |  | O=C(O)COc1ccc2ccc(=O)oc2c1 [Compound 3a, 2-((2-Oxo-2H-chromen-7-yl)oxy)acetic acid] | 50
7 |  |  |  | > 10 | > 10 | > 10 | 0.195 |  | O=C(O)COc1ccc2oc(=O)ccc2c1 [Compound 3b, 2-((2-Oxo-2H-chromen-6-yl)oxy)acetic acid] | 50
8 |  | 96 | 178 to 179 | > 10 | > 10 | > 10 | 0.166 | 10 | O=C(COc1ccc2ccc(=O)oc2c1)NCCc1ccccc1 [Compound 4a, 2-((2-Oxo-2H-chromen-7-yl)oxy)-N-phenethylacetamide] | 
9 |  | 85 | 150 to 151 | > 10 | > 10 | > 10 | 0.0305 | 10 | O=C(COc1ccc2oc(=O)ccc2c1)NCCc1ccccc1 [Compound 4b, 2-((2-Oxo-2H-chromen-6-yl)oxy)-N-phenethylacetamide] | 
10 |  | 45 | 167 to 168 | > 10 | > 10 | > 10 | 0.0837 |  | O=C(COc1ccc2ccc(=O)oc2c1)NCc1ccccc1 [Compound 5a, N-Benzyl-2-((2-oxo-2H-chromen-7-yl)oxy)acetamide] | 
11 |  | 42 | 161 to 162 | > 10 | > 10 | > 10 | 0.0302 |  | O=C(COc1ccc2oc(=O)ccc2c1)NCc1ccccc1 [Compound 5b, N-Benzyl-2-((2-oxo-2H-chromen-6-yl)oxy)acetamide] | 
12 |  | 63 | 160 to 161 | > 10 | > 10 | > 10 | 2.54 | 47 | O=C(COc1ccc2ccc(=O)oc2c1)NCc1ccc(F)cc1 [Compound 6a, N-(4-Fluorobenzyl)-2-((2-oxo-2H-chromen-7-yl)oxy)acetamide] | 
13 |  | 26 | 158 to 159 | > 10 | > 10 | > 10 | 2.78 |  | O=C(COc1ccc2oc(=O)ccc2c1)NCc1ccc(F)cc1 [Compound 6b, N-(4-Fluorobenzyl)-2-((2-oxo-2H-chromen-6-yl)oxy)acetamide] | 
14 |  | 50 | 182 to 183 | > 10 | > 10 | > 10 | 0.201 | 100 | O=C(COc1ccc2ccc(=O)oc2c1)Nc1ccccc1 [Compound 7a, 2-((2-Oxo-2H-chromen-7-yl)oxy)-N-phenylacetamide] | 
15 |  | 45 | 182 to 183 | > 10 | > 10 | 2.65 | 0.202 |  | O=C(COc1ccc2oc(=O)ccc2c1)Nc1ccccc1 [Compound 7b, 2-((2-Oxo-2H-chromen-6-yl)oxy)-N-phenylacetamide] | 
16 |  | 43 | 208 to 209 | > 10 | > 10 | 0.35 | 0.136 |  | O=C(COc1ccc2ccc(=O)oc2c1)Nc1ccc(F)cc1 [Compound 8a, N-(4-Fluorophenyl)-2-((2-oxo-2H-chromen-7-yl)oxy)acetamide] | 
17 |  | 11 | 206 to 207 | > 10 | > 10 | 0.848 | 0.146 |  | O=C(COc1ccc2oc(=O)ccc2c1)Nc1ccc(F)cc1 [Compound 8b, N-(4-Fluorophenyl)-2-((2-oxo-2H-chromen-6-yl)oxy)acetamide] | 
18 |  | 33 | 213 to 214 | > 10 | > 10 | > 10 | 2.73 |  | COC(=O)c1ccccc1NC(=O)COc1ccc2ccc(=O)oc2c1 [Compound 9a, Methyl 2-(2-((2-oxo-2H-chromen-7-yl)oxy)acetamido)benzoate] | 
19 |  | 50 | 213 to 214 | > 10 | > 10 | > 10 | 2.04 | 100 | COC(=O)c1ccccc1NC(=O)COc1ccc2oc(=O)ccc2c1 [Compound 9b, Methyl 2-(2-((2-oxo-2H-chromen-6-yl)oxy)acetamido)benzoate] | 
20 |  | 79 | 138 to 139 | > 10 | > 10 | > 10 | 2.38 | 15 | O=C(COc1ccc2ccc(=O)oc2c1)NCCc1ccccn1 [Compound 10a, 2-((2-Oxo-2H-chromen-7-yl)oxy)-N-(2-(pyridin-2-yl)ethyl)acetamide] | 
21 |  | 40 | 141 to 142 | > 10 | > 10 | > 10 | 2.15 |  | O=C(COc1ccc2oc(=O)ccc2c1)NCCc1ccccn1 [Compound 10b, 2-((2-Oxo-2H-chromen-6-yl)oxy)-N-(2-(pyridin-2-yl)ethyl)acetamide] | 
22 |  | 56 | 148 to 149 | > 10 | > 10 | > 10 | > 10 | 42.5 | O=C(COc1ccc2ccc(=O)oc2c1)NCCN1CCOCC1 [Compound 12a, N-(2-Morpholinoethyl)-2-((2-oxo-2H-chromen-7-yl)oxy)acetamide] | 
23 |  | 64 | 149 to 150 | > 10 | > 10 | > 10 | > 10 | 16.5 | O=C(COc1ccc2oc(=O)ccc2c1)NCCN1CCOCC1 [Compound 12b, N-(2-Morpholinoethyl)-2-((2-oxo-2H-chromen-6-yl)oxy)acetamide] | 
24 |  | 50 | 116 to 117 | > 10 | > 10 | > 10 | 1.97 | 100 | O=C(COc1ccc2ccc(=O)oc2c1)NCCN1CCCCC1 [Compound 13a, 2-((2-Oxo-2H-chromen-7-yl)oxy)-N-(2-(piperidin-1-yl)ethyl)acetamide] | 
25 |  | 37.6 | 115 to 116 | > 10 | > 10 | > 10 | 0.274 |  | O=C(COc1ccc2oc(=O)ccc2c1)NCCN1CCCCC1 [Compound 13b, 2-((2-Oxo-2H-chromen-6-yl)oxy)-N-(2-(piperidin-1-yl)ethyl)acetamide] | 

From article PMC6017447, “Novel 6- and 7-Substituted Coumarins with Inhibitory Action against Lipoxygenase and Tumor-Associated Carbonic Anhydrase IX” (Molecules : A Journal of Synthetic Chemistry and Natural …, 2018)
